US20240409585A1, “MACROCYCLIC IMMUNOMODULATORS” (priority 2021, published 2024)
Bridge positions count the residues as written; N and C are the ends. Square brackets hold non-standard residues; d marks the D form. Peptide text beside a SMILES is read from it. * marks the point of attachment. ξ: configuration not given here. Phe(4-COOH) = N[C@@H](Cc1ccc(C(=O)O)cc1)C(=O)O; Bip = N[C@@H](Cc1ccc(-c2ccccc2)cc1)C(=O)O; NMeW = CN[C@@H](Cc1c[nH]c2ccccc12)C(=O)O; Phe(3-Cl) = N[C@@H](Cc1cccc(Cl)c1)C(=O)O; Phe(3-OMe) = COc1cccc(C[C@H](N)C(=O)O)c1; Phe(3-Me) = Cc1cccc(C[C@H](N)C(=O)O)c1; hArg = N=C(N)NCCCC[C@H](N)C(=O)O; 3Pal = N[C@@H](Cc1cccnc1)C(=O)O; 4Pal = N[C@@H](Cc1ccncc1)C(=O)O; Cha = N[C@@H](CC1CCCCC1)C(=O)O; Ile(3ξ) = CCC(C)[C@H](N)C(=O)O; Thr(3ξ) = CC(O)[C@H](N)C(=O)O; Carboxymethyl = O=C(O)C*; NMeA = CN[C@@H](C)C(=O)O; Dab = NCC[C@H](N)C(=O)O; Dap = NC[C@H](N)C(=O)O; Piv = CC(C)(C)C(=O)*; ξC = NC(CS)C(=O)O

These compounds were tested against T1, PE-labeled human PD-L1-Ig binding to Jurkat cell line over-expressing human PD-1 (Jurkat-PD-1) (Homo sapiens, UniProt Q15116) (assay: Jurkat-PD-1 Cell Binding High-Content Screening Assay (CBA): Method 1). Conditions: Jurkat HPDL1 PD1 IC50 (uM) (Method 1).
T1 construct: expressed in transfected cells; host or cells: Jurkat
T1 sequence (Q15116 25-288): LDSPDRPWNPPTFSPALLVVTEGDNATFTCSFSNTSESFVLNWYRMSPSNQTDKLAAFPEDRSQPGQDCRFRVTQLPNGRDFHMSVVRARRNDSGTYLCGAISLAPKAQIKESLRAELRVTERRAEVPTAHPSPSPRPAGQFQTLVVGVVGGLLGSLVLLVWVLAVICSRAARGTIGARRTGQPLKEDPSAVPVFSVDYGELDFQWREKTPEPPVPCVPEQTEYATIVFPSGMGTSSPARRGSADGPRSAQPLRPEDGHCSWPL
CCC(C)[C@@H]1NC(=O)[C@H](Cc2ccc(-c3ccccc3)cc2)NC(=O)[C@H](C(C)C)NC(=O)[C@H](Cc2cccc(C)c2)NC(=O)[C@H](CC(=O)O)NC(=O)[C@H](Cc2cccc(C)c2)NC(=O)[C@H](Cc2ccncc2)NC(=O)CSC[C@@H](C(=O)N[C@@H](CO)C(=O)O)NC(=O)[C@H](CO)NC(=O)[C@H](C(C)C)NC(=O)[C@H](CC2CCCCC2)NC(=O)[C@H](CCN)NC(=O)[C@@H](CC(C)C)NC(=O)[C@H](C)N(C)C1=O (stereo partly drawn) [Compound 2233] ({CH2CO}-[4Pal][Phe(3-Me)]D[Phe(3-Me)]V[Bip][Ile(3ξ)][NMeA][dL][Dab][Cha]VSCS-OH; thioether N-14) showed an IC50 of 0.02 µM.

Same assay, conditions: Jurkat-hPD-1 cells, PE-labeled PD-L1-Ig 20 nM final; read-out: Jurkat HPDL1 PD1 IC50 (uM) (Method 1)
Compound Cc1cccc(C[C@@H]2NC(=O)[C@H](CC(=O)O)NC(=O)[C@H](Cc3ccc(OCC(=O)O)cc3)NC(=O)[C@H](Cc3ccncc3)NC(=O)CSC[C@@H](C(=O)N[C@@H](CCNC(=O)C(C)(C)C)C(N)=O)NC(=O)[C@H]([C@@H](C)O)NC(=O)[C@H](C(C)C)NC(=O)[C@H](CC3CCCCC3)NC(=O)[C@H](CCN)NC(=O)[C@@H](CC(C)C)NC(=O)[C@H](C)N(C)C(=O)[C@H](Cc3ccc(OCC(=O)O)cc3)NC(=O)[C@H](Cc3ccc(-c4ccccc4)cc3)NC(=O)[C@H](Cc3ccc(OCC(=O)O)cc3)NC2=O)c1 [Compound 1867] ({CH2CO}-[4Pal]Y(Carboxymethyl)D[Phe(3-Me)]Y(Carboxymethyl)[Bip]Y(Carboxymethyl)[NMeA][dL][Dab][Cha]VTC[Dab](Piv)-NH2; thioether N-14) has an IC50 of 0.03 µM.
In the case of CC(=O)NCCCC[C@@H]1NC(=O)[C@H](C(C)C)NC(=O)[C@H](CC2CCCCC2)NC(=O)[C@H](CCN)NC(=O)[C@@H](CC(C)C)NC(=O)[C@H](C)N(C)C(=O)[C@H](CC(N)=O)NC(=O)[C@H](Cc2ccc(-c3ccccc3)cc2)NC(=O)[C@H](C(C)C)NC(=O)[C@H](Cc2cccc(C)c2)NC(=O)[C@H](CC(=O)O)NC(=O)[C@H](Cc2ccc(OCC(=O)O)cc2)NC(=O)[C@H](Cc2ccc(OCC(=O)O)cc2)NC(=O)CSC[C@@H](C(N)=O)NC1=O [Compound 2263] ({CH2CO}-Y(Carboxymethyl)Y(Carboxymethyl)D[Phe(3-Me)]V[Bip]N[NMeA][dL][Dab][Cha]VK(Ac)C-NH2; thioether N-14), the IC50 is reported as 0.01 µM.
CC(C)C[C@@H]1NC(=O)[C@H](CCN)NC(=O)[C@@H](CC(C)C)NC(=O)[C@H](C)N(C)C(=O)[C@H](CCCNC(=N)N)NC(=O)[C@H](Cc2ccc(-c3ccccc3)cc2)NC(=O)[C@H](C(C)C)NC(=O)[C@H](Cc2c[nH]c3ccccc23)NC(=O)[C@H](CC(=O)O)NC(=O)[C@H](Cc2cccc(Cl)c2)NC(=O)[C@H](CN)NC(=O)CSC[C@@H](C(=O)N[C@@H](C)C(N)=O)NC(=O)[C@H]([C@@H](C)O)NC(=O)[C@H](C(C)C)NC1=O [Compound 1445] ({CH2CO}-[Dap][Phe(3-Cl)]DWV[Bip]R[NMeA][dL][Dab]LVTCA-NH2; thioether N-14) gave an IC50 of 0.11 µM.
For CC(C)C[C@@H]1NC(=O)[C@H](CCN)NC(=O)[C@@H](CC(C)C)NC(=O)[C@H](C)N(C)C(=O)[C@H](Cc2cnc[nH]2)NC(=O)[C@H](Cc2ccc(-c3ccccc3)cc2)NC(=O)[C@H](C(C)C)NC(=O)[C@H](Cc2c[nH]c3ccccc23)NC(=O)[C@H](CC(=O)O)NC(=O)[C@H](Cc2cccc(Cl)c2)NC(=O)[C@H](CN)NC(=O)CSC[C@@H](C(=O)N[C@@H](C)C(N)=O)NC(=O)[C@H]([C@@H](C)O)NC(=O)[C@H](C(C)C)NC1=O [Compound 1440] ({CH2CO}-[Dap][Phe(3-Cl)]DWV[Bip]H[NMeA][dL][Dab]LVTCA-NH2; thioether N-14), the IC50 was 0.19 µM.
In the case of Cc1cccc(C[C@@H]2NC(=O)[C@H](CC(=O)O)NC(=O)[C@H](Cc3ccc(C(=O)O)cc3)NC(=O)[C@H](Cc3ccc(OCC(=O)O)cc3)NC(=O)CSC[C@@H](C(=O)N[C@H](CC(N)=O)C(N)=O)NC(=O)[C@H](CO)NC(=O)[C@H](C(C)C)NC(=O)[C@H](CC(C)C)NC(=O)[C@H](CCN)NC(=O)[C@@H](CC(C)C)NC(=O)[C@H](C)N(C)C(=O)[C@H](C(C)C)NC(=O)[C@H](Cc3ccc(-c4ccccc4)cc3)NC(=O)[C@H](CC(C)C)NC2=O)c1 [Compound 2112] ({CH2CO}-Y(Carboxymethyl)[Phe(4-COOH)]D[Phe(3-Me)]L[Bip]V[NMeA][dL][Dab]LVSC[dN]-NH2; thioether N-14), the IC50 is reported as 0.02 µM.
In the case of CC(C)C[C@@H]1NC(=O)[C@H](CCN)NC(=O)[C@@H](CC(C)C)NC(=O)[C@H](Cc2c[nH]c3ccccc23)N(C)C(=O)[C@H](C(C)C)NC(=O)[C@H](Cc2ccc(-c3ccccc3)cc2)NC(=O)[C@H](C(C)C)NC(=O)[C@H](Cc2c[nH]c3ccccc23)NC(=O)[C@H](CC(=O)O)NC(=O)[C@H](Cc2ccc(O)cc2)NC(=O)[C@H](CC(N)=O)NC(=O)CSC[C@@H](C(=O)N[C@@H](C)C(N)=O)NC(=O)[C@H]([C@@H](C)O)NC(=O)[C@H](C(C)C)NC1=O [Compound 1368] ({CH2CO}-NYDWV[Bip]V[NMeW][dL][Dab]LVTCA-NH2; thioether N-14), the IC50 is reported as 0.13 µM.
Compound CC(C)C[C@@H]1NC(=O)[C@H](CCN)NC(=O)[C@@H](CC(C)C)NC(=O)[C@H](C)N(C)C(=O)[C@H](CCCNC(=N)N)NC(=O)[C@H](Cc2ccc(-c3ccccc3)cc2)NC(=O)[C@H](C(C)C)NC(=O)[C@H](Cc2c[nH]c3ccccc23)NC(=O)[C@H](CC(=O)O)NC(=O)[C@H](Cc2ccc(O)cc2)NC(=O)[C@H](CCCCNC(=N)N)NC(=O)CSC[C@@H](C(=O)N[C@@H](C)C(N)=O)NC(=O)[C@H]([C@@H](C)O)NC(=O)[C@H](C(C)C)NC1=O [Compound 1344] ({CH2CO}-[hArg]YDWV[Bip]R[NMeA][dL][Dab]LVTCA-NH2; thioether N-14) has an IC50 of 0.07 µM.
Work on COc1cccc(C[C@@H]2NC(=O)[C@H](Cc3cccnc3)NC(=O)CSCC(C(=O)N[C@@H](CN)C(=O)O)NC(=O)[C@H](CO)NC(=O)[C@H](C(C)C)NC(=O)[C@H](CC(C)C)NC(=O)[C@H](CC(N)=O)NC(=O)[C@@H](CC(C)C)NC(=O)[C@H](C)N(C)C(=O)[C@H](C(C)C)NC(=O)[C@H](Cc3ccc(-c4ccccc4)cc3)NC(=O)[C@H](C(C)C)NC(=O)[C@H](Cc3c[nH]c4ccccc34)NC(=O)[C@H](CC(=O)O)NC2=O)c1 (stereo partly drawn) [Compound 2211] ({CH2CO}-[3Pal][Phe(3-OMe)]DWV[Bip]V[NMeA][dL]NLVS[ξC][Dap]-OH; thioether N-14) yielded an IC50 of 0.08 µM.
Compound CC(C)C[C@@H]1NC(=O)[C@H](CCCNC(=N)N)NC(=O)[C@@H](CC(C)C)NC(=O)[C@H](C)N(C)C(=O)[C@H](C(C)C)NC(=O)[C@H](Cc2ccc(-c3ccccc3)cc2)NC(=O)[C@H](C(C)C)NC(=O)[C@H](Cc2c[nH]c3ccccc23)NC(=O)[C@H](CC(=O)O)NC(=O)[C@H](Cc2ccc(O)cc2)NC(=O)[C@H](CC(N)=O)NC(=O)CSC[C@@H](C(=O)N[C@@H](C)C(N)=O)NC(=O)[C@H]([C@@H](C)O)NC(=O)[C@H](C(C)C)NC1=O [Compound 1216] ({CH2CO}-NYDWV[Bip]V[NMeA][dL]RLVTCA-NH2; thioether N-14) has an IC50 of 0.03 µM.
With CC(C)C[C@H]1NC(=O)[C@H](C)N(C)C(=O)[C@H](CCC(=O)O)NC(=O)[C@H](Cc2ccc(-c3ccccc3)cc2)NC(=O)[C@H](C(C)C)NC(=O)[C@H](Cc2c[nH]c3ccccc23)NC(=O)[C@H](CC(=O)O)NC(=O)[C@H](Cc2ccc(O)cc2)NC(=O)[C@H](C(C)O)NC(=O)CSC[C@@H](C(=O)NCC(N)=O)NC(=O)[C@H](C(C)O)NC(=O)[C@H](C(C)C)NC(=O)[C@H](CC2CCCCC2)NC(=O)[C@H](CCN)NC1=O (stereo partly drawn) [Compound 2095] ({CH2CO}-[Thr(3ξ)]YDWV[Bip]E[NMeA][dL][Dab][Cha]V[Thr(3ξ)]CG-NH2; thioether N-14) the IC50 was 0.04 µM.
